Values quoted from earlier work in patent publication US20170095484A1, “METHOD OF TREATING RESISTANT NON-HODGKIN LYMPHOMA, MEDULLOBLASTOMA, AND/OR ALK+NON-SMALL CELL LUNG CANCER USING THIENOTRIAZOLODIAZEPINE COMPOUNDS” (ONCOETHIX GMBH, priority 2014, published 2017).
Blank lines part the entries; values can stand above or below the compound they belong to.

What was measured:
mTOR = mTOR (Homo sapiens, UniProt P42345)
[1] = system: Lyn, Syk, PKA, casein kinase I, ERK1, ERK2 and p38 kinase
[2] = target: Bruton's tyrosine kinase (BTK) (Homo sapiens, UniProt Q06187); conditions: in intact cells and in cell-free systems
Chain of Bruton's tyrosine kinase (BTK) (Q06187 whole entry, canonical isoform): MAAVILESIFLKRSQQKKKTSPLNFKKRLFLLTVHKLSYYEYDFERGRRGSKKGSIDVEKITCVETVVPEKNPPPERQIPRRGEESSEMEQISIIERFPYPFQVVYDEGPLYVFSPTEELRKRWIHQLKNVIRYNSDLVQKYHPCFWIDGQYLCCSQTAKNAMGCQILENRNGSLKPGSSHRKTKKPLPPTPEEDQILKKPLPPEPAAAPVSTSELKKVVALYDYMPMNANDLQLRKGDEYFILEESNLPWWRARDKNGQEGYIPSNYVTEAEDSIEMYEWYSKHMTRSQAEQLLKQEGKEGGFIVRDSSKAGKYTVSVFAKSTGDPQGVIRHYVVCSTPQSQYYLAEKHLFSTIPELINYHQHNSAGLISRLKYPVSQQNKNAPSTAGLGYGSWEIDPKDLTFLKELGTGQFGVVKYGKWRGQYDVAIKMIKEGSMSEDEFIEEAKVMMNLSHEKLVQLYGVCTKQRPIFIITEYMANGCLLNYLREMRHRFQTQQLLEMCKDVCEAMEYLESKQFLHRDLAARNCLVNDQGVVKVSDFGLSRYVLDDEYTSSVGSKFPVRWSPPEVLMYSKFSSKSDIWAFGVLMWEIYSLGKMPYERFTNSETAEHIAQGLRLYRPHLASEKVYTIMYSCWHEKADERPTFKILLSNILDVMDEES

HDAC = conditions: isoform not stated

IC50 (mTOR): 1.6 to 2.4 nM
Compound: CO[C@H]1C[C@@H]2CC[C@@H](C)[C@@](O)(O2)C(=O)C(=O)N2CCCC[C@H]2C(=O)O[C@H]([C@H](C)C[C@@H]2CC[C@@H](OCCO)[C@H](OC)C2)CC(=O)[C@H](C)/C=C(\C)[C@@H](O)[C@@H](OC)C(=O)[C@H](C)C[C@H](C)/C=C/C=C/C=C/1C [Everolimus]

Compound: CC1=C(O)C(=O)[C@@H]2O[C@@H]2C1=O [Terreic acid]
effect on the activity of PKC (PKC): without affecting the activity of PKC
effect on the activities of Lyn, Syk, PKA, casein kinase I, ERK1, ERK2 and p38 kinase [1]: little or no effect
effect on the catalytic activity of BTK [2]: Inhibits the catalytic activity of BTK

IC50 (HDAC): ~1.8 nM
Compound: Trichostatin A
